In article PMC8333425, “Discovery of a dual Ras and ARF6 inhibitor from a GPCR endocytosis screen” (Nature Communications, 2021):
“And” between values parts separate entries of the source, which are not always exact repeats. Equal values may be shown once.

Key:
[1] = system: ERK1/2 activation by V2R; experiment: Western blot of V2R-mediated ERK1/2 activation (rebuttal Figure 1); format: cell-based, human; settings: Barbadin 100 µM
[2] = target: K-Ras (Homo sapiens, UniProt P01116); experiment: In vitro mant-GTP exchange assay, purified K-Ras-WT with SOS1; format: biochemical; parameters: GST (N); FLAG (N); host or cells: E. coli BL21; settings: 50 μM
Chain of K-Ras (P01116 1-188 isoform P01116-2): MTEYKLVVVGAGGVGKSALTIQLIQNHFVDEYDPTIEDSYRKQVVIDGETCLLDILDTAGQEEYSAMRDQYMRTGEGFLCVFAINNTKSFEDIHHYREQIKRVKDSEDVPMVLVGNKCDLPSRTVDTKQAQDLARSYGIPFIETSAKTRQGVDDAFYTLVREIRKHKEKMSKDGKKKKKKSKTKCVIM
Experimental: Ras activity was assessed in a 384-well black bottom plate using the mant-GTP exchange factor assay that measures the uptake of the fluorescent nucleotide analog N-methylanthraniloyl-GTP (mant-GTP) into GTPases. For Ras activation, 2X exchange buffer, 1.66 μg of purified pGEX-6P-1-H-Ras or pGEX-6P-1-K-Ras-WT or pGEX-6P-1-K-Ras-Y32A were added per well in presence of DMSO, different concentrations of Rasarfin (as indicated) or 50 µM of compounds 21.4, 21.7, or 21.8. Using the Infinite 200 Pro plate reader (Tecan) with filters set at 360 nm and 440 nm for detecting the excitation and emissions, respectively, and temperature set at 20 °C, 5 readings were recorded every 5 s before the addition of either H2O, 40 mM EDTA or 0.66 μg purified SOS1. The fluorescence of mant-GTP uptake was measured every 30 sec for 30 min and quantified as the delta relative fluorescence units (RFU), which was calculated as the RFU post-addition minus the 5 averaged RFU pre-addition, per condition.

[3] = target: T1, 384 kinases from the human genome (Homo sapiens, UniProt Q14289); experiment: KINOMEscan kinase binding assay; settings: kinase PYK2 (Entrez PTK2B)
T1 construct: purchased Eurofin/DiscoverX
T1 sequence (Q14289 whole entry): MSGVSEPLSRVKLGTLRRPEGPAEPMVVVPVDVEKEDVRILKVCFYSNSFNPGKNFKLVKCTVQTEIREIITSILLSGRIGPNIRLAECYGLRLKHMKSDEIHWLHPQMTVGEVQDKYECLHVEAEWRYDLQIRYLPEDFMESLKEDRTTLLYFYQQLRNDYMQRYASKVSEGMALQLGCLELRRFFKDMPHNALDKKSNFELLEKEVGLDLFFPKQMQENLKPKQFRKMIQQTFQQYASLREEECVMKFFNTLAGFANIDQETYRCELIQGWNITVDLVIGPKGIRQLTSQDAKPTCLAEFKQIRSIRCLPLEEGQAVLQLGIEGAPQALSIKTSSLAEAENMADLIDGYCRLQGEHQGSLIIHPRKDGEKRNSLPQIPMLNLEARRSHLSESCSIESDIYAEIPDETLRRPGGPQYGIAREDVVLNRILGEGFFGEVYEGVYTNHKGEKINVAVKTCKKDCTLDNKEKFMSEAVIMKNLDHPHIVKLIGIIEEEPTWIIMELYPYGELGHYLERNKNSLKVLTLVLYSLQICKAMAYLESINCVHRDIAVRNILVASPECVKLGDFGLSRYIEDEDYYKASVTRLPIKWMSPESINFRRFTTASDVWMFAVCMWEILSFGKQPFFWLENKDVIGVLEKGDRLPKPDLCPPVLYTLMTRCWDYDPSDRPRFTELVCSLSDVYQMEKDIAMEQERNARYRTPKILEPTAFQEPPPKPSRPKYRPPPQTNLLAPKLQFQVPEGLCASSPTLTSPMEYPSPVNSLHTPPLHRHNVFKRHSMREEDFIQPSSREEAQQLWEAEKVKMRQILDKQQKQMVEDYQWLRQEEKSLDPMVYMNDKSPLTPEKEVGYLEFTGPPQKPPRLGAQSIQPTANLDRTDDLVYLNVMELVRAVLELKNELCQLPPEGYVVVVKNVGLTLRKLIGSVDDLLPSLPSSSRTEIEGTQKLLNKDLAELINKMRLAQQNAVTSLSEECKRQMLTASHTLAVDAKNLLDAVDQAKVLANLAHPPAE
How it was run: (§1)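 Competition binding (KINOMEscan) across 384 human kinases with compound at 10 µM. Ligand binding was expressed relative to DMSO (100%) as the average of duplicates from one experiment. S(10) selectivity score was derived.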

[4] = target: T2, 384 kinases from the human genome (Homo sapiens, UniProt Q9Y2K2); experiment: KINOMEscan kinase binding assay; settings: kinase QSK (Entrez KIAA0999)
T2 construct: purchased Eurofin/DiscoverX
T2 sequence (Q9Y2K2 whole entry): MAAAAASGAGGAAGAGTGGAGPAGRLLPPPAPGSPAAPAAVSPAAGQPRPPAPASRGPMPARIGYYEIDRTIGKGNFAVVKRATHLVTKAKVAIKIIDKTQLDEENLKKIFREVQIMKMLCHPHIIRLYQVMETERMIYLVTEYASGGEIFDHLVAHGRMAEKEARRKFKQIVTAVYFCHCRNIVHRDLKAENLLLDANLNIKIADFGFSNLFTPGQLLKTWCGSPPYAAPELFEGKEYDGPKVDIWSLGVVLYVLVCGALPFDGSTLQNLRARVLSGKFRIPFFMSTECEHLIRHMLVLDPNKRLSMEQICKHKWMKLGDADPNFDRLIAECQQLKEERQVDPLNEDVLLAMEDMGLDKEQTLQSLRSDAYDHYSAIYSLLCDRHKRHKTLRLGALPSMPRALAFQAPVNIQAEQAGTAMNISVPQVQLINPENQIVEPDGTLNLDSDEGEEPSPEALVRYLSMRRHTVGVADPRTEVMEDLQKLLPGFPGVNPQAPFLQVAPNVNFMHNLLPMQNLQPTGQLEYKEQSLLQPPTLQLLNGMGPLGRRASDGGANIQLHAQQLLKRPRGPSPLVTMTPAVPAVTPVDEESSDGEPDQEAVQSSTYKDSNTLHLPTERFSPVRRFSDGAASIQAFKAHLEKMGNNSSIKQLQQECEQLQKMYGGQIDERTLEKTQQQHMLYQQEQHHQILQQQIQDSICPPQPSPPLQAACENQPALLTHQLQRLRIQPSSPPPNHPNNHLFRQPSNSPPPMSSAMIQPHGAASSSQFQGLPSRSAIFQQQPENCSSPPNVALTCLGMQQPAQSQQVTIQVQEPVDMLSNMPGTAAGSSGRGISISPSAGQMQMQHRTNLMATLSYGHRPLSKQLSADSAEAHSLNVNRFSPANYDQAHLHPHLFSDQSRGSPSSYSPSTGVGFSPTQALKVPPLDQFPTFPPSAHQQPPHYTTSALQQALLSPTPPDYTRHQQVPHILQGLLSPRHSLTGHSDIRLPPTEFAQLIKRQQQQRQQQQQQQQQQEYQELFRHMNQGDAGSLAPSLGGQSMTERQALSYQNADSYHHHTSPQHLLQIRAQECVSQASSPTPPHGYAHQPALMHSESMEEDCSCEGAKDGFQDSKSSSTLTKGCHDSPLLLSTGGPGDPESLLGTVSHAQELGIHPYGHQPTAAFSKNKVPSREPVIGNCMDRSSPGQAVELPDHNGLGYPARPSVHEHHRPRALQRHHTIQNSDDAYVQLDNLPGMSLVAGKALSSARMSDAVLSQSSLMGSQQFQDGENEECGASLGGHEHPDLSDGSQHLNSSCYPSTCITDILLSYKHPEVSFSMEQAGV
How it was run: as §1

[5] = target: T3, 384 kinases from the human genome (Homo sapiens, UniProt P53671); experiment: KINOMEscan kinase binding assay; settings: kinase LIMK2 (Entrez LIMK2)
T3 construct: purchased Eurofin/DiscoverX
How it was run: as §1

[6] = target: T4, 384 kinases from the human genome (Homo sapiens, UniProt Q04771); experiment: KINOMEscan kinase binding assay; settings: kinase ACVR1 (Entrez ACVR1)
T4 construct: purchased Eurofin/DiscoverX
T4 sequence (Q04771 21-509): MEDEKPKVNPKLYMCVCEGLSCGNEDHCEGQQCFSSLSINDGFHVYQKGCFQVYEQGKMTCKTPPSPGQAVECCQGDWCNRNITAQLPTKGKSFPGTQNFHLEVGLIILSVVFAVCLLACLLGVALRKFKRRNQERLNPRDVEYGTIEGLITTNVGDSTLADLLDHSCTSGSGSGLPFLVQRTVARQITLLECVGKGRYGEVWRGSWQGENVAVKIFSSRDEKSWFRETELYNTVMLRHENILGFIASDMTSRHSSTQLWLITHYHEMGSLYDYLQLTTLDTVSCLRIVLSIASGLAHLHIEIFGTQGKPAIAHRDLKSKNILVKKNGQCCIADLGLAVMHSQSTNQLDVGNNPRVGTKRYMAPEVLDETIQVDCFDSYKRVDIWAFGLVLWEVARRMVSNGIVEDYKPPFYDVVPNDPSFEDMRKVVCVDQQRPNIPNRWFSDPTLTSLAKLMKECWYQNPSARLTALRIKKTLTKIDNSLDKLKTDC
How it was run: as §1

[7] = target: T5, 384 kinases from the human genome (Homo sapiens, UniProt Q9UIK4); experiment: KINOMEscan kinase binding assay; settings: kinase DAPK2 (Entrez DAPK2)
T5 construct: purchased Eurofin/DiscoverX
T5 sequence (Q9UIK4 whole entry): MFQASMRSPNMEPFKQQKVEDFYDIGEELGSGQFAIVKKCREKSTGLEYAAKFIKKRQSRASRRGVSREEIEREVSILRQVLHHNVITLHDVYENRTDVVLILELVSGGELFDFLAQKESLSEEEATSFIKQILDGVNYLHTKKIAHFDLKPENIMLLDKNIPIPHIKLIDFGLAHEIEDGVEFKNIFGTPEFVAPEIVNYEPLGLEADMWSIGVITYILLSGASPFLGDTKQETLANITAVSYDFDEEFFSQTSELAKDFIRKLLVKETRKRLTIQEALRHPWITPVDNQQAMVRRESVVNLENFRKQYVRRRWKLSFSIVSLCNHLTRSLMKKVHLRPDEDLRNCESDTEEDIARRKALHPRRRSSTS
How it was run: as §1

[8] = target: T6, 384 kinases from the human genome (Homo sapiens, UniProt Q86Z02); experiment: KINOMEscan kinase binding assay; settings: kinase HIPK1 (Entrez HIPK1)
T6 construct: purchased Eurofin/DiscoverX
T6 sequence (Q86Z02 whole entry): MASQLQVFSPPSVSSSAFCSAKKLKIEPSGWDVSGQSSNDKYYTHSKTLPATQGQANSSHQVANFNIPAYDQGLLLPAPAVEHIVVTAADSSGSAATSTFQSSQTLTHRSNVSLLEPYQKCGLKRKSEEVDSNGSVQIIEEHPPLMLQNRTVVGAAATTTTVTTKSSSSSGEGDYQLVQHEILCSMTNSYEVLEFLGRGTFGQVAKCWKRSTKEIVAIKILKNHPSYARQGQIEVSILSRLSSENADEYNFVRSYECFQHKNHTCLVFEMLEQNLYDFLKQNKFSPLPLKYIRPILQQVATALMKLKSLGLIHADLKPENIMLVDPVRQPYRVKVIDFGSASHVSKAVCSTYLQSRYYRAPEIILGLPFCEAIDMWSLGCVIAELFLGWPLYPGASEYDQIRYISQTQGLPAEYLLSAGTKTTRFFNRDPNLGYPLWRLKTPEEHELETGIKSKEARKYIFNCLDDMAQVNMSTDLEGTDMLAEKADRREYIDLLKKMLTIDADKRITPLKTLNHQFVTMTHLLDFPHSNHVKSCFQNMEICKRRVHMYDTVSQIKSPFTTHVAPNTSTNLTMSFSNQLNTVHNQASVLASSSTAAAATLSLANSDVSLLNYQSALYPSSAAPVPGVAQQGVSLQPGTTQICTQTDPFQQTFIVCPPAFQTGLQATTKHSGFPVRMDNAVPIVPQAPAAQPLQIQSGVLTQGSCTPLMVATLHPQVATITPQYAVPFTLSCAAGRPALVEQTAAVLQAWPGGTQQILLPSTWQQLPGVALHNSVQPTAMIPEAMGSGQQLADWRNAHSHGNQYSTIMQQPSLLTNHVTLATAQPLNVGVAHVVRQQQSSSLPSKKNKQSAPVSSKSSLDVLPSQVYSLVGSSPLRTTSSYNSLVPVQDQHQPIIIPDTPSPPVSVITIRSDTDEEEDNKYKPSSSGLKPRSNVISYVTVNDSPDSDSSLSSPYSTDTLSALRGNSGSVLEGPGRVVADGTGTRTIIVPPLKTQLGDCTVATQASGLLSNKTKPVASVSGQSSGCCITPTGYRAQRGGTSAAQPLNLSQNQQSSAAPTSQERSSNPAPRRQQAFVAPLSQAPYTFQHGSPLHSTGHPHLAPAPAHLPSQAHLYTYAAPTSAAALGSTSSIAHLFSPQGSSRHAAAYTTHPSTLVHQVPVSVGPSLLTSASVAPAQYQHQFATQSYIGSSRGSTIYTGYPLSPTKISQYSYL
How it was run: as §1

[9] = system: ERK1/2 activation by EGFR; experiment: Western blot of EGFR-mediated ERK1/2 phosphorylation; format: cell-based, human; settings: for p-ERK1/2 over ERK1/2, normalized to basal (0 min), EGFR: Comp 21 50 μM; for p-ERK1/2 over ERK1/2, normalized to basal (0 min), EGFR / ERK 1/2 activation, EGFR (p-ERK1/2 over ERK1/2, fold over basal): individual experiments
Experimental: HEK293SL cells (10^5 cells per well) were seeded in a poly-L-lysine-coated six-well plate and transiently transfected with 3 μg Flag-AT1R, HA-B2R or HA-β2AR and/or 500 ng Flag-MEK1-WT, Flag-MEK1-DD, Flag-BRAF-WT, Flag-BRAF-V600E, Flag-K-Ras-WT, Flag-K-Ras-G12V, HA-ARF6-WT, or HA-ARF6-T27N. Gαq/11 KO and βarr1/2 KO cells were seeded onto 100 mm dishes at a density of 10^6 cells per dish. Next day, cells were transfected with 3 μg AT1R alone or along with 500 ng of β-arrestin2 using PEI. After 18 h of transfection, cells were detached and re-seeded onto poly-L-lysine coated 12-well plates (~1.5–2 × 10^5cells/well) for subsequent experiments. Forty-eight hours post transfection, in a 37 °C water bath, cells were serum-starved for 30 min, pretreated with DMSO (0.1%) or compound 21/Rasarfin (50 µM or at indicated concentrations) for 30 min, then stimulated or not with the indicated ligand [AngII (1 µM), BK (1 µM), Iso (10 µM) or EGF (100 ng/ml)] at indicated times. Cells were put on ice, washed with PBS and solubilized in 2x laemmli buffer (250 mM Tris–HCl pH 6.8, 2% SDS (w/v), 10% glycerol (v/v), 0.01% bromophenol blue (w/v) and 5% β-mercaptoethanol (v/v)) by heating at 65 °C for 15 min. Lysates were resolved on 10 or 14% SDS-PAGE, transferred to nitrocellulose membranes and immunoblotted for p-ERK1/2, ERK1/2, p-Akt, Akt, HA, Myc, β-actin or FLAG. ImageLab 5.2 software was used to quantify the digital blots as fold of the phosphorylated protein over total protein, which were then normalized as indicated in the figure legends. Uncropped immunoblots are provided in the Source Data file.

## Nn1cnc2scc(-c3ccc(Cc4ccccc4)cc3)c2c1=O [Barbadin, reference compound]
[1]
  V2R-mediated ERK1/2 phosphorylation in HEK293 cells: potent inhibition

## CC(C)C(=O)N1CCN(c2ccc(NC(=O)c3cc4ccccc4o3)cc2Cl)CC1 [Compound 21]
[2]
  SOS-mediated mant-GTP binding onto purified K-Ras: inhibited the SOS-mediated mant-GTP binding
[3]
  Percent Control: 96%
[4]
  Percent Control: 100%
[5]
  Percent Control: 90%
[6]
  Percent Control: 70%
[7]
  Percent Control: 100%
[8]
  Percent Control: 87%
[9]; 50 μM
  MAPK response promoted by EGFR: blocked MAPK responses
[9]; time 0 min
  p-ERK1/2 over ERK1/2, normalized to basal (0 min), EGFR: 1
[9]; time 2 min
  p-ERK1/2 over ERK1/2, normalized to basal (0 min), EGFR: 0.3674 and 5.171 and 13.8891 and 0.7219
[9]; time 5 min
  p-ERK1/2 over ERK1/2, normalized to basal (0 min), EGFR: 0.3034 and 7.285 and 51.2032 and 0.6227
[9]; Homo sapiens, read-out: IC50 for inhibition of ERK1/2 activation by EGFR
  IC50: 4 µM
[9]; Log [Comp 21] (M) -4.3
  ERK 1/2 activation, EGFR (p-ERK1/2 over ERK1/2, fold over basal): 3.411 percent compared to DMSO and 1.173 percent compared to DMSO
[9]; Log [Comp 21] (M) -5
  ERK 1/2 activation, EGFR (p-ERK1/2 over ERK1/2, fold over basal): 5.269 percent compared to DMSO and 7.4638 percent compared to DMSO and 1.3341 percent compared to DMSO
[9]; Log [Comp 21] (M) -5.3
  ERK 1/2 activation, EGFR (p-ERK1/2 over ERK1/2, fold over basal): 22.8883 percent compared to DMSO and 78.7892 percent compared to DMSO and 45.9513 percent compared to DMSO
[9]; Log [Comp 21] (M) -6
  ERK 1/2 activation, EGFR (p-ERK1/2 over ERK1/2, fold over basal): 104.782 percent compared to DMSO and 74.7611 percent compared to DMSO
[9]; Log [Comp 21] (M) -6.3
  ERK 1/2 activation, EGFR (p-ERK1/2 over ERK1/2, fold over basal): 80.4826 percent compared to DMSO and 84.8524 percent compared to DMSO
[9]; Log [Comp 21] (M) -7
  ERK 1/2 activation, EGFR (p-ERK1/2 over ERK1/2, fold over basal): 108.069 percent compared to DMSO and 86.5762 percent compared to DMSO
